Data reported in patent publication US20250144094A1 (Erasca, Inc., priority 2021, published 2025).

The molecules below were run against Recombinant human ULK1 (1-649) (Homo sapiens (Human), UniProt O75385) (assay: ULK1 ADP Glo kinase activity assay, new method (ULKtide peptide substrate)). Details: 25° C., 40 minutes, read-out: ULK1 biochemical IC50.
In short: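 GST-tagged human ULK1 (1-649) from Sf9 cells was reacted with ULKtide peptide and ATP for 40 min at 25 °C across 12-point compound dilutions from 10 μM. ADP formed was quantified by ADP-Glo luminescence; IC50 came from four-parameter fits relative to DMSO controls.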

Chain of Recombinant human ULK1 (1-649) (O75385 1-649): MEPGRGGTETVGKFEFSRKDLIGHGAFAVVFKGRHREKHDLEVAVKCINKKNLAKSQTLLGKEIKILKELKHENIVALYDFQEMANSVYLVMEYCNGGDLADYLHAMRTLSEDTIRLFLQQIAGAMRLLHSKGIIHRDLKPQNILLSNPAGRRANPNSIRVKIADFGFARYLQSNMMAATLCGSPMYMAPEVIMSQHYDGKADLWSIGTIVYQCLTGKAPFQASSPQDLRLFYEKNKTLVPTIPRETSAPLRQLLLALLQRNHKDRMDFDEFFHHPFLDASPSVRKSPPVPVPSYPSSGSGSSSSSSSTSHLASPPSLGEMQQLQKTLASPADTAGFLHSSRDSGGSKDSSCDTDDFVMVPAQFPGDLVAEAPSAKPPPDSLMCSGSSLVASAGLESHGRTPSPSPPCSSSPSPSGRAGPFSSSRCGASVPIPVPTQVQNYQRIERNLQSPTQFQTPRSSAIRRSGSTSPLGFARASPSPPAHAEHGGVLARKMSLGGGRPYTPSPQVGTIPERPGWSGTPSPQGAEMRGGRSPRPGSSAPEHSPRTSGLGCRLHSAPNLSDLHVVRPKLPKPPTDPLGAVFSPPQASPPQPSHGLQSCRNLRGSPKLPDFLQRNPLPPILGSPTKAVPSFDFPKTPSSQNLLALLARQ

O=C1c2sc(-c3nc(Nc4ccc(N5C[C@@H]6C[C@H]5CN6)cc4C4CC4)ncc3C(F)(F)F)cc2S(=O)(=O)CCN1C1CC1 [Example 305, 7-(2-((4-((1S,4S)-2,5-diazabicyclo[2.2.1]heptan-2-yl)-2-cyclopropylphenyl)amino)-5-(trifluoromethyl)pyrimidin-4-yl)-4-cyclopropyl-3,4-dihydrothieno[2,3-f][1,4]thiazepin-5(2H)-one 1,1-dioxide] and O=C1c2sc(-c3nc(Nc4ccc(N5C[C@@H]6C[C@H]5CN6)cc4C4CC4)ncc3C(F)(F)F)cc2S(=O)(=O)CCN1C1COC1 [Example 310, 7-(2-((4-((1S,4S)-2,5-diazabicyclo[2.2.1]heptan-2-yl)-2-cyclopropylphenyl)amino)-5-(trifluoromethyl)pyrimidin-4-yl)-4-(oxetan-3-yl)-3,4-dihydrothieno[2,3-f][1,4]thiazepin-5(2H)-one 1,1-dioxide] cannot be ordered by IC50: at most 5 nM for the first, at most 5 nM for the second.

CN1C[C@@H]2C[C@H]1CN2c1ccc(Nc2ncc(C(F)(F)F)c(-c3cc4c(s3)C(=O)N(C3CC3)CCS4(=O)=O)n2)c(C2CC2)c1 [Example 306, 4-Cyclopropyl-7-(2-((2-cyclopropyl-4-((1S,4S)-5-methyl-2,5-diazabicyclo[2.2.1]heptan-2-yl)phenyl)amino)-5-(trifluoromethyl)pyrimidin-4-yl)-3,4-dihydrothieno[2,3-f][1,4]thiazepin-5(2H)-one 1,1-dioxide] and CN1C[C@@H]2C[C@H]1CN2c1ccc(Nc2ncc(C(F)(F)F)c(-c3cc4c(s3)C(=O)N(C3COC3)CCS4(=O)=O)n2)c(C2CC2)c1 [Example 317, 7-(2-((2-cyclopropyl-4-((1S,4S)-5-methyl-2,5-diazabicyclo[2.2.1]heptan-2-yl)phenyl)amino)-5-(trifluoromethyl)pyrimidin-4-yl)-4-(oxetan-3-yl)-3,4-dihydrothieno[2,3-f][1,4]thiazepin-5(2H)-one 1,1-dioxide] cannot be ordered by IC50: at most 5 nM for the first, at most 5 nM for the second.

O=C1c2sc(-c3nc(Nc4ccc(N5C[C@H]6CC[C@@H](C5)N6)cc4C4CC4)ncc3C(F)(F)F)cc2S(=O)(=O)CCN1C1CC1 [Example 307, 7-(2-((4-((1R,5S)-3,8-diazabicyclo[3.2.1]octan-3-yl)-2-cyclopropylphenyl)amino)-5-(trifluoromethyl)pyrimidin-4-yl)-4-cyclopropyl-3,4-dihydrothieno[2,3-f][1,4]thiazepin-5(2H)-one 1,1-dioxide] and O=C1c2sc(-c3nc(Nc4ccc(N5C[C@H]6CC[C@@H](C5)N6)cc4C4CC4)ncc3C(F)(F)F)cc2S(=O)(=O)CCN1C1COC1 [Example 318, 7-(2-((4-((1R,5S)-3,8-diazabicyclo[3.2.1]octan-3-yl)-2-cyclopropylphenyl)amino)-5-(trifluoromethyl)pyrimidin-4-yl)-4-(oxetan-3-yl)-3,4-dihydrothieno[2,3-f][1,4]thiazepin-5(2H)-one 1,1-dioxide] cannot be ordered by IC50: at most 5 nM for the first, at most 5 nM for the second.

C[C@@H]1CN(c2ccc(Nc3ncc(C(F)(F)F)c(-c4cc5c(s4)C(=O)N(C4CC4)CCS5(=O)=O)n3)c(C3CC3)c2)CCN1 [Example 308, (R)-4-cyclopropyl-7-(2-((2-cyclopropyl-4-(3-methylpiperazin-1-yl)phenyl)amino)-5-(trifluoromethyl)pyrimidin-4-yl)-3,4-dihydrothieno[2,3-f][1,4]thiazepin-5(2H)-one 1,1-dioxide] and C[C@@H]1CN(c2ccc(Nc3ncc(C(F)(F)F)c(-c4cc5c(s4)C(=O)N(C4COC4)CCS5(=O)=O)n3)c(C3CC3)c2)CCN1 [Example 315, (R)-7-(2-((2-cyclopropyl-4-(3-methylpiperazin-1-yl)phenyl)amino)-5-(trifluoromethyl)pyrimidin-4-yl)-4-(oxetan-3-yl)-3,4-dihydrothieno[2,3-f][1,4]thiazepin-5(2H)-one 1,1-dioxide] cannot be ordered by IC50: at most 5 nM for the first, at most 5 nM for the second.

C[C@@H]1CN(c2ccc(Nc3ncc(C(F)(F)F)c(-c4cc5c(s4)C(=O)N(C4CC4)CCS5(=O)=O)n3)c(C3CC3)c2)CCN1C [Example 309, (R)-4-cyclopropyl-7-(2-((2-cyclopropyl-4-(3,4-dimethylpiperazin-1-yl)phenyl)amino)-5-(trifluoromethyl)pyrimidin-4-yl)-3,4-dihydrothieno[2,3-f][1,4]thiazepin-5(2H)-one 1,1-dioxide] and C[C@@H]1CN(c2ccc(Nc3ncc(C(F)(F)F)c(-c4cc5c(s4)C(=O)N(C4COC4)CCS5(=O)=O)n3)c(C3CC3)c2)CCN1C [Example 316, (R)-7-(2-((2-cyclopropyl-4-(3,4-dimethylpiperazin-1-yl)phenyl)amino)-5-(trifluoromethyl)pyrimidin-4-yl)-4-(oxetan-3-yl)-3,4-dihydrothieno[2,3-f][1,4]thiazepin-5(2H)-one 1,1-dioxide] cannot be ordered by IC50: at most 5 nM for the first, at most 5 nM for the second.

First: O=S1(=O)CCNS(=O)(=O)c2sc(-c3nc(Nc4cc5c(cc4C4CC4)CNCC5)ncc3C(F)(F)F)cc21 [Example 311, 7-(2-((7-cyclopropyl-1,2,3,4-tetrahydroisoquinolin-6-yl)amino)-5-(trifluoromethyl)pyrimidin-4-yl)-3,4-dihydro-2H-thieno[3,2-f][1,5,2]dithiazepine 1,1,5,5-tetraoxide]
Second: O=C1c2sc(-c3nc(Nc4cc5c(cc4C4CC4)CN(CCOC(F)(F)F)CC5)ncc3C(F)(F)F)cc2S(=O)(=O)CCN1C1CC1 [Example 314, 4-cyclopropyl-7-(2-((7-cyclopropyl-2-(2-(trifluoromethoxy)ethyl)-1,2,3,4-tetrahydroisoquinolin-6-yl)amino)-5-(trifluoromethyl)pyrimidin-4-yl)-3,4-dihydrothieno[2,3-f][1,4]thiazepin-5(2H)-one 1,1-dioxide]
The IC50 of the first is lower: at most 5 nM for the first, 10 to 50 nM for the second. The first is the more potent here.

O=C1c2sc(-c3nc(Nc4cc5c(cc4C4CC4)CN(CCOC(F)(F)F)CC5)ncc3C(F)(F)F)cc2S(=O)(=O)CCN1C1COC1 [Example 312, 7-(2-((7-cyclopropyl-2-(2-(trifluoromethoxy)ethyl)-1,2,3,4-tetrahydroisoquinolin-6-yl)amino)-5-(trifluoromethyl)pyrimidin-4-yl)-4-(oxetan-3-yl)-3,4-dihydrothieno[2,3-f][1,4]thiazepin-5(2H)-one 1,1-dioxide] and CN1[C@@H]2CC[C@H]1CN(c1ccc(Nc3ncc(C(F)(F)F)c(-c4cc5c(s4)C(=O)N(C4CC4)CCS5(=O)=O)n3)c(C3CC3)c1)C2 [Example 313, 4-cyclopropyl-7-(2-((2-cyclopropyl-4-((1R,5S)-8-methyl-3,8-diazabicyclo[3.2.1]octan-3-yl)phenyl)amino)-5-(trifluoromethyl)pyrimidin-4-yl)-3,4-dihydrothieno[2,3-f][1,4]thiazepin-5(2H)-one 1,1-dioxide] cannot be ordered by IC50: 5 to 10 nM for the first, at most 5 nM for the second.

With CCc1cc(N2C[C@@H]3C[C@H]2CN3)ccc1Nc1ncc(C(F)(F)F)c(-c2cc3c(s2)C(=O)N(C2CC2)CCS3(=O)=O)n1 [Example 319, 7-(2-((4-((1S,4S)-2,5-diazabicyclo[2.2.1]heptan-2-yl)-2-ethylphenyl)amino)-5-(trifluoromethyl)pyrimidin-4-yl)-4-cyclopropyl-3,4-dihydrothieno[2,3-f][1,4]thiazepin-5(2H)-one 1,1-dioxide] the IC50 was at most 5 nM.
